Assays:
K562 [1] = experiment: Induction of human K562 cells differentiation assessed as hemoglobin/genomic DNA level at 32 uM after 72 hrs relative to untreated control; type: functional
K562 [2] = experiment: Induction of human K562 cells differentiation assessed as hemoglobin/genomic DNA level at 4 uM after 72 hrs relative to untreated control; type: functional
Homo sapiens = species on record: Homo sapiens; experiment: Selectivity ratio of IC50 for human IMPDH1 to IC50 for human IMPDH2
K562 [3] = experiment: Induction of human K562 cells differentiation assessed as hemoglobin/genomic DNA level at 2 uM after 72 hrs relative to untreated control; type: functional
[4] = target: Inosine-5'-monophosphate dehydrogenase 1 (Homo sapiens, UniProt P20839); experiment: Inhibition of human IMPDH1 expressed in Escherichia coli strain BL21(DE3) after 60 mins
Chain of Inosine-5'-monophosphate dehydrogenase 1 (P20839 whole entry): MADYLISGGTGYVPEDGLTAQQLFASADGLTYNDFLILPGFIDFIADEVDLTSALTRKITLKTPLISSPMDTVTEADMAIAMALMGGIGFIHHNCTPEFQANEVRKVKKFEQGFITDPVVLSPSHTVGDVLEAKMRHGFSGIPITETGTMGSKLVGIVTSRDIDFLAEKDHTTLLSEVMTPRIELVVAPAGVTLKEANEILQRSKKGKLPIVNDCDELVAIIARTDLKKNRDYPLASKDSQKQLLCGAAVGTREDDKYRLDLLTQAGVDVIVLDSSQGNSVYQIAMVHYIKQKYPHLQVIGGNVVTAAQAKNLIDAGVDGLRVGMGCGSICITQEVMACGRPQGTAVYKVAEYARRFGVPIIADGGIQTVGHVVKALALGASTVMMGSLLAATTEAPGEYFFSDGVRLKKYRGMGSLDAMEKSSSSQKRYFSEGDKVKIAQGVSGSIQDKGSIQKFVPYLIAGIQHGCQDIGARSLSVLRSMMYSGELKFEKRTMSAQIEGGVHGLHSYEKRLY

IMPDH2 = experiment: Selectivity ratio of IC50 for human K562 cells to IC50 for human IMPDH2; type: ADME, cell-based; details: K562 cells versus IMPDH2 enzyme, read-out: Ratio IC50
K562 [5] = experiment: Induction of human K562 cells differentiation assessed as hemoglobin/genomic DNA level at 8 uM after 72 hrs relative to untreated control; type: functional
K562 [6] = experiment: Cytotoxicity against human K562 cells after 72 hrs by trypan blue exclusion assay; type: functional, cell-based; details: K562, 72 h
K562 [7] = experiment: Induction of human K562 cells differentiation assessed as hemoglobin/genomic DNA level at 16 uM after 72 hrs relative to untreated control; type: functional
[8] = target: Inosine-5'-monophosphate dehydrogenase 2 (Homo sapiens, UniProt P12268); experiment: Inhibition of human IMPDH2 expressed in Escherichia coli strain BL21(DE3) after 60 mins
K562 [9] = experiment: Induction of human K562 cells differentiation assessed as hemoglobin/genomic DNA level at 1 uM after 72 hrs relative to untreated control; type: functional
K562 [10] = experiment: Induction of human K562 cells differentiation assessed as hemoglobin/genomic DNA level at 0.25 uM after 72 hrs relative to untreated control; type: functional
K562 [11] = experiment: Induction of human K562 cells differentiation assessed as hemoglobin/genomic DNA level at 0.5 uM after 72 hrs relative to untreated control; type: functional
[12] = Inhibition of HDAC
HeLa = experiment: Antiproliferative activity against human HeLa cells; type: functional, cell-based

Row | Ratio IC50 (Homo sapiens) | IC50 [4] | IC50 [8] | IC50 [12] | IC50 (HeLa) | Structure (SMILES) | Ratio (K562 [1]) | Ratio (K562 [2]) | Ratio (K562 [3]) | selectivity ratio (IMPDH2) | Ratio (K562 [5]) | IC50 (K562 [6]) | Ratio (K562 [7]) | Ratio (K562 [9]) | Ratio (K562 [10]) | Ratio (K562 [11])
1 | 0.97 | 770 nM | 790 nM | – | – | COc1c(C)c2c(c(O)c1C/C=C(\C)CCCO)C(=O)OC2 | 4.7 | 1.3 | 0.7 | 4.9 | 2.5 | 3900 nM | 3.8 | – | – | –
2 | 1.1 | 1500 nM | 1400 nM | – | – | COC(=O)CC/C(C)=C/Cc1c(O)c2c(c(C)c1OC)COC2=O | – | 4.9 | 3.5 | 0.52 | 5.6 | 730 nM | – | 2.1 | 1 | 1
3 | – | 19 nM | – | – | – | COc1c(C)c2c(c(O)c1C/C=C(\C)CCC(=O)O)C(=O)OC2 [MYCOPHENOLIC ACID] | – | – | – | – | – | – | – | – | – | –
4 | 0.88 | 150 nM | 170 nM | – | – | C/C(=C\Cc1c(O)c(C)c2c(c1O)C(=O)OC2)CCC(=O)O | 3.1 | 1.1 | 1.1 | 48 | – | 8200 nM | 1.8 | 1.4 | – | –
5 | 0.93 | 67000 nM | 72000 nM | – | – | COc1c(C)c2c(c(OC)c1C/C=C(\C)CCC(=O)O)C(=O)OC2 | 1 | 1.1 | 1.2 | – | 1.1 | > 50000 nM | 1.4 | – | – | –
6 | 0.83 | 350 nM | 420 nM | 1000 nM | 2000 nM | COc1c(C)c2c(c(O)c1C/C=C(\C)CCC(=O)NO)C(=O)OC2 [MYCOPHENOLIC HYDROXAMIC ACID] | 1.7 | 2.9 | 1 | 5 | 3.2 | 2100 nM | 1.8 | 0.8 | – | –
7 | 1 | 4100 nM | 4100 nM | – | – | COc1c(C)c2c(c(OC(C)=O)c1C/C=C(\C)CCC(=O)O)C(=O)OC2 | – | 5.3 | 4.2 | 0.14 | 6 | 590 nM | – | 2.9 | – | 1.8
8 | – | – | – | 900 nM | 1500 nM | COc1c(C)c2c(c(OC(C)=O)c1C/C=C(\C)CCC(=O)NO)C(=O)OC2 | – | – | – | – | – | – | – | – | – | –
9 | – | – | – | 500 nM | 1000 nM | CCCCCCCCCCCCOc1c(C/C=C(\C)CCC(=O)NO)c(OC)c(C)c2c1C(=O)OC2 | – | – | – | – | – | – | – | – | – | –
10 | – | – | – | 900 nM | 50000 nM | COc1c(C)c2c(c(OC)c1C/C=C(\C)CCC(=O)NO)C(=O)OC2 | – | – | – | – | – | – | – | – | – | –

From ChEMBL document CHEMBL1287663 (Bioorg Med Chem, 2010)
